Read-outs that look alike come from different tables or passages of the source.
Legend:
[1] = Time to reach the maximum blood concentration after oral administration; assay type: in vivo; settings: oral administration (1 mg/kg)
[2] = molecular target: T1, hS1P3 (Homo sapiens, UniProt Q99500); experiment: Suppressive effect on S1P-induced increase in [Ca2+]i, CHO-K1 cells expressing S1P3 (Fura 2-AM), IC50; assay type: cell-based; settings: S1P solution 50 nmol/L, read-out: hS1P3 suppression IC50
[3] = molecular target: T1, hS1P3; experiment: S1P receptor subtype selectivity, S1P-induced [Ca2+]i increase in CHO-K1 cells stably expressing S1P3 (Calcium3); assay type: cell-based
Experimental: (§1) The selectivity to the S1P receptor subtype was examined in the following manner. […] Furthermore, a Calcium3 (Molecular Devices, Inc.) solution prepared in HBSS (+) buffer, which is a fluorescent Ca^2+ indicator, was added, and the cells were incubated for 60 minutes at 37° C. Then, 100 μL of a test compound solution prepared to a concentration of 2×10 μmol/L was added, and the cells were incubated for 20 minutes at 37° C. […] The indicator was prepared and used according to the instruction manual.
(§2) A solution of the test compound was prepared by dissolving each of the test compounds in DMSO to a concentration of 10 mmol/L, and then diluting the solution with an HBSS (+) buffer solution to the predetermined concentration. […] The measurement values were obtained by subtracting the maximum RFU value for the blind test from the maximum RFU values for control or each test compounds. A decrease in the measurement value for the test compound relative to the control was indicated as the suppression rate (%), from which the IC50 value was calculated.

[4] = molecular target: T2, hS1P1 (Homo sapiens, UniProt P21453); experiment: S1P receptor subtype selectivity, S1P-induced [Ca2+]i increase in CHO-K1 cells stably expressing S1P1 (Calcium3); assay type: cell-based
T2 construct: expressed in transfected cells
T2 sequence (P21453 whole entry): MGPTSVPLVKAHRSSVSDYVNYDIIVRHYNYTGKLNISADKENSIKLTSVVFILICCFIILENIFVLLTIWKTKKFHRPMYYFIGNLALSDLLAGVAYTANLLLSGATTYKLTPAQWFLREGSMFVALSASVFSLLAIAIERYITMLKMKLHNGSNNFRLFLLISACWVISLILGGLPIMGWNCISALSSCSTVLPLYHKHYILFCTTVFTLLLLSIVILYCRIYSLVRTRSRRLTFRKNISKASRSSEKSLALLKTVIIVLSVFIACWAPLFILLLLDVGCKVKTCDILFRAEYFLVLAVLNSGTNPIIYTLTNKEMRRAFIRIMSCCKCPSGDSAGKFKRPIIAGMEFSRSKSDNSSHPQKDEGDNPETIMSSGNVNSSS
Experimental: as §1, §2

[5] = molecular target: T3, hS1P2 (Homo sapiens, UniProt O95136); experiment: S1P receptor subtype selectivity, S1P-induced [Ca2+]i increase in CHO-K1 cells stably expressing S1P2 (Calcium3); assay type: cell-based
T3 construct: expressed in transfected cells
T3 sequence (O95136 whole entry): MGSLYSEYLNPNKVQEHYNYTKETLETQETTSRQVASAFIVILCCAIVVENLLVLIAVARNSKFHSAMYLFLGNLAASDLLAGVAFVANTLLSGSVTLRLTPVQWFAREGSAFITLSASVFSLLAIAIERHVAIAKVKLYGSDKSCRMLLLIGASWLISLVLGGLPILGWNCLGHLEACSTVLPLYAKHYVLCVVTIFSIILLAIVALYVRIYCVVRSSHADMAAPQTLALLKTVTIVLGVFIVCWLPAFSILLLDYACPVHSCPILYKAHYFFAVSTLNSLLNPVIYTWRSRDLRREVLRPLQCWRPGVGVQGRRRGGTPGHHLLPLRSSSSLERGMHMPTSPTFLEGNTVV
Experimental: as §1, §2

[6] = system: isolated heart of rat; experiment: Effect on the coronary blood flow rate in isolated heart of rat (Langendorff perfusion); settings: S1P 10^−9 M to 10^−7 M in perfusion solution
Experimental: A male SD rat weighing about 350 g was anesthetized with pentobarbital sodium (50 mg/kg), and heparin (1000 U/kg) was administered through the lower limb vein. The heart was rapidly isolated and connected to a Langendorff perfusion apparatus. […] The temperature of the perfusion solution was set at 37±0.2° C., and gassed with a gas mixture (95% O2 and 5% CO2) such that the oxygen partial pressure was 550 mmHg or more. The coronary perfusion flow rate was measured with an electromagnetic blood flow meter through a probe installed in the circulation pathway. Furthermore, the effects on the heart function were investigated using the left ventricular developed pressure (LVDP), the first derivative of the left ventricular pressure (LV±dp/dt) and the heart rate (HR) as indices. The LVDP was determined by subtracting the left ventricular end diastolic pressure (LVEDP) from the left ventricular systolic pressure (LVSP), which was detected with a latex balloon inserted into the left ventricle, and measured with a pressure strain meter via a pressure transducer. […] Signals measured with the pressure strain meter were conducted to a differential meter and a heart rate meter, to measure the first derivative of the left ventricular pressure (LV±dp/dt) and the heart rate (HR). […]

[7] = system: FTY720-induced bradycardia; experiment: Effect on hemodynamic changes (bradycardia) caused by FTY720 in anesthetized rat; assay type: in vivo; settings: FTY720 1 mg/kg intravenously
Experimental: Thus, the effects of the compound of the present invention on the FTY720-induced bradycardia were examined.
A rat was anesthetized with pentobarbital (50 mg/kg, intraperitoneal administration), and then catheters for drug administration and blood pressure measurement were inserted into the lower limb vein and the carotid artery, respectively. The blood pressure was measured with a strain pressure amplifier via a pressure transducer. The heart rate was measured with a tachometer by means of the electrocardiographic wave. The FTY720 used was purchased from Cayman Chemical Co.
FTY720 (1 mg/kg) was intravenously administered, and the effects thereof on hemodynamics were investigated by measuring the blood pressure and the heart rate at 0 minute (immediately before administration), and 10, 20 and 30 minutes immediately after the intravenous administration.

[8] = CHO-K1, read-out: Suppression rate at 10 μM (%) hS1P3
[9] = CHO-K1, read-out: Suppression rate at 10 μM (%) hS1P1
[10] = CHO-K1, read-out: Suppression rate at 10 μM (%) hS1P2

T1 sequence (Q99500 whole entry): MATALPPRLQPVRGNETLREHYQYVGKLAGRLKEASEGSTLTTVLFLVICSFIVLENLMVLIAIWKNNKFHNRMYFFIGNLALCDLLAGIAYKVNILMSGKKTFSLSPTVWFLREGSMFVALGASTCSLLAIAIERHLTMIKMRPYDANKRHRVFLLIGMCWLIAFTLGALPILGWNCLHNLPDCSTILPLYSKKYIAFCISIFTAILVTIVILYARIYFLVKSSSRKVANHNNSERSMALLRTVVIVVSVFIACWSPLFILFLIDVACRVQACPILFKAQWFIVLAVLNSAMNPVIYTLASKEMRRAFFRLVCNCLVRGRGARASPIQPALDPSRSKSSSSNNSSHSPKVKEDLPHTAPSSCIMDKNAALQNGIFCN

Row | Compound | IC50 [2] | inhibition at 10 µM [3, 8] | inhibition at 10 µM [4, 9] | inhibition at 10 µM [5, 10] | further results
1 | CC(C)(C)C(=O)/C(=N/c1ccc(Cl)cc1)NNc1ccc(Cl)cc1 [Compound 33, 1-(4-chlorophenylamino)-1-(4-chlorophenylhydrazono)-3,3-dimethyl-2-butanone] |  |  |  |  | time to reach the maximum blood concentration [1]: 4 h
2 | C#Cc1ccc(NC(=NNc2ccc(Cl)cc2)C(=O)C(C)(C)CCl)cc1 [Compound 122, 4-chloro-1-(4-chlorophenylhydrazono)-1-(4-ethynylphenylamino)-3,3-dimethyl-2-butanone] | 3860 nM | 89.9% | 4.9% | 7.1% | 
3 | CC(C)(C)C(=O)C(=NNc1ccc(Cl)cc1)Nc1ccc(Br)cc1 [Compound 134, 1-(4-bromophenylamino)-1-(4-chlorophenylhydrazono)-3,3-dimethyl-2-butanone] | 870 nM |  |  |  | inhibition at 10 µM ([3]; 10 μM, CHO-K1 stably expressing S1P3, S1P solution 50 nmol/L, Calcium3, read-out: Suppression rate at 10 μM (%) hS1P3): 96.5%; inhibition at 10 µM ([4]; 10 μM, CHO-K1 stably expressing S1P1, S1P solution 100 nmol/L, Calcium3, read-out: Suppression rate at 10 μM (%) hS1P1): 36.4%; inhibition at 10 µM ([5]; 10 μM, CHO-K1 stably expressing S1P2, S1P solution 100 nmol/L, Calcium3, read-out: Suppression rate at 10 μM (%) hS1P2): 29.8%
4 | C#Cc1ccc(NC(=NNc2ccc(Cl)cc2)C(=O)C(C)(C)C)cc1 [Compound 136, 1-(4-chlorophenylhydrazono)-1-(4-ethynylphenylamino)-3,3-dimethyl-2-butanone] | 990 nM | 94.3% | 40.3% | 33.7% | 
5 | C#Cc1ccc(NN=C(Nc2ccc(C#C)cc2)C(=O)C(C)(C)C)cc1 [Compound 138, 1-(4-ethynylphenylamino)-1-(4-ethynylphenylhydrazono)-3,3-dimethyl-2-butanone] | 1620 nM | 79.9% | 14.1% | 8% | 
6 | CCCCCCCCCCCCC/C=C/[C@@H](O)[C@@H](N)COP(=O)(O)O [Compound S1P, sphingosine 1-phosphate] |  |  |  |  | coronary blood flow rate, effect of S1P [6]: significantly decreased
7 | CCCCCCCCc1ccc(CCC(N)(CO)CO)cc1 [FTY720] |  |  |  |  | heart rate, effect of FTY720 [7]: reduced the heart rate and induced bradycardia

Reference: patent US8546452B2, “S1P3 receptor antagonist” (TOA Eiyo Ltd., priority 2005, dated 2013)
